# What was measured:
# [1] = system: spontaneously hypertensive rats (SHRs); experiment: Blood tests (complete blood cell count, liver function) in SHRs after dosing; format: in vivo, rat; settings: for platelets count (PLC) or white blood cell counts (WBC): significant versus control
# Experimental: (§1) The animal model used in this example or the following examples is illustrated as follows. The Institutional Animal Care and Use Committee of the Fu Jen Catholic University, New Taipei, Taiwan (Approval No A10660), approved all of the animal procedures and experimental protocols. Male 16-week-old SHRs (body weight range: 350-370 g) were purchased from the National Laboratory Animal Center, Taipei, Taiwan. The animals were housed at a temperature of 21° C. under a 12 h light/dark cycle and fed a regular pellet diet. The animals were divided into three main groups—the Y16 group, the Rhosin group, and the Y16+Rhosin group. Each group was further divided into several subgroups according to the administered Y16 and Rhosin dose. Their concentrations are listed below: Y16 group: 0.2 mg/kg, 1 mg/kg, 5 mg/kg, 10 mg/kg, 20 mg/kg; Rhosin group: 5 mg/kg, 10 mg/kg, 20 mg/kg; Y16+Rhosin group: (Y16, 3 mg+Rhosin, 7 mg)/kg, (Y16, 5 mg+Rhosin, 10 mg)/kg.
# (§2) The procedure of physiological signals recording and blood tests used in this example or the following examples is as follows. The rats were anesthetized with Zoletil 50 (30 mg/kg, intraperitoneal injection) and then attached to a physiological signal recording device. The Y16 and Rhosin were administered to them by intravenous injection. Their electrocardiography (ECG), heart rate (HR), and blood pressure (BP) measurements were taken for 90 minutes. After observing and recording the physiological signals, blood was drawn from the rats in an appropriate test tube and stored for subsequent tests for complete blood cell count, liver function and renal function. The rats were then sacrificed. Their heart, lungs, liver, and kidneys were removed and stored in paraformaldehyde for further histological examinations.
# The animal model and experimental procedure of this example are the same as those described in Example 6. To observe whether the use of Y16 or Rhosin might have adverse effects or even harm to the animals, the blood of rats was drawn for the blood test after collecting the required physiological signals.
# [2] = system: spontaneously hypertensive rats (SHRs); experiment: Histological examination (HE) of heart, liver, lung and kidney of SHRs; format: in vivo, rat; settings: doses used in the experiments
# Experimental: as §2
# The procedure of histological examination used in this example is as follows. The tissues were fixed in 4% paraformaldehyde overnight and then embedded in paraffin for histological examination. The transverse sections (4 μm) were incubated at 75˜85° C. for 10 minutes, followed by stained with hematoxylin/eosin (HE), and examined under a light microscope. Severity of lesions was graded according to the methods described by Shackelford et al. (2002). […]
# LARG-RhoA interaction = LARG-RhoA interaction by co-immunoprecipitation and Western blot in Ang II-stimulated SHR VSMCs; format: cell-based, rat
# Text: (§3) The culture procedure of the primary cultured vascular smooth muscle cells (VSMCs) used in this example or the following examples is as follows. SHRs were anesthetized with Zoletil 50, and the thoracic aortas were immediately excised. The samples were then carefully cleaned of connective tissue and adherent fat. Each isolated aorta was cut open longitudinally, followed by endothelial removal by gently grazing the intimal surface. The denuded aortas were cut into approximately 2 mm^2 sections and then placed with the intimal side down. The M199 medium supplemented with 20% fetal bovine serum and antibiotics (100 U/ml penicillin and 100 μg/ml streptomycin) were then gently added to cover the tissues without disturbing the orientation of the explants. VSMCs were allowed to grow out from the explants for 7-10 days culture, and the tissues were removed.
# The treatment method of the small molecule compounds used in this example or the following examples is as follows. Small molecule compounds were dissolved in pure water to test their effects on the VSMCs. […]
# The procedure of cell harvest and protein extraction used in this example or the following examples is as follows. […] The protein concentrations were determined using a BSA Protein Assay kit. […]
# [3] = system: myosin phosphatase target subunit 1 (MYPT1) phosphorylation; experiment: MYPT1 phosphorylation by Western blot in Ang II-stimulated SHR VSMCs; format: cell-based, rat
# Text: as §3
# The treatment method of the small molecule compounds used in this example or the following examples is as follows. Small molecule compounds were dissolved in pure water to test their effects on the VSMCs. Different concentrations of Y16 or the combination of Y16+Rhosin were administered for 24 hours, followed by stimulation with 10^−7M angiotensin II (Ang II) for 10 min. The Y16 concentrations used were as follows: 1 μM, 2.5 μM, 5 μM, 10 μM, 30 μM, 50 μM.
# The procedure of cell harvest and protein extraction used in this example or the following examples is as follows. Culture dishes were placed on ice and washed twice with ice-cold phosphate-buffered saline (PBS). All subsequent procedures were performed over ice. […] The protein concentrations were determined using a BSA Protein Assay kit.
# The procedure of Western blot analysis used in this example or the following examples is as follows. […] Signals were visualized using a UVP Imaging System (UVP) or with X-ray film, and the results were expressed as the densitometric ratio of target protein/GAPDH or phosphor-MYPT1/total-MYPT1. […]
# SHR primary VSMCs = experiment: MTT assay for cell viability of SHR primary VSMCs; format: cell-based, rat; settings: 1, 2.5, 5, 10, 30, or 50 μmol/L Y16, 24 hours
# Experimental: The procedure of 3-(4,5-dimethylthiazol-2-yl)-2,5-diphenyltetrazolium bromide (MTT) assay for cell viability used in this example is as follows. The cytotoxicity results for Y16 or Rhosin were determined using an MTT-based in vitro assay. Briefly, the media from the cell cultures was discarded and carefully aspirated. Next, 50 μL of serum-free media and 50 μL of MTT solution were added into each well. The plate was then incubated at 37° C. for 3 hours. After incubation, 150 μL of MTT solvent (4 mM HCl, 0.1% NP40 in isopropanol) was added into each well. The plate was then wrapped in foil and shaken on an orbital shaker for 15 minutes, and the absorbance was read at OD=590 nm.
# [4] = system: spontaneously hypertensive rats (SHRs); experiment: Physiological signals recording (BP, HR) in anesthetized SHRs after intravenous injection; format: in vivo, rat; settings: for decrease of BP: versus 0 min
# Text: According to the present invention, the statistical analysis used in the following examples is described as follows. For the physiological signals recording, the data from different time intervals of each rat was compared with that from before Y16 and Rhosin administration. Considering the differences of physiological conditions among individuals, the BP and HR are not calculated by the absolute value measured, but by the percentage of the BP or HR measured at each time point relative to those measured before administration (0 minutes). All data were representative of at least four independent experiments.
# as §1, §2
structure (smiles),measurement,setting,value
"Cc1cccc(COc2cccc(/C=C3\C(=O)NN(c4ccccc4)C3=O)c2)c1 [Y16, (E)-4-(3-(3-methylbenzyloxy)benzylidene)-1-phenylpyrazolidine-3,5-dione]",platelets count (PLC) or white blood cell counts (WBC),[1]; 0.2 mg/kg iv,slightly high
same,platelets count (PLC) or white blood cell counts (WBC),[1]; 1 mg/kg iv,slightly high
same,abnormalities regarding complete blood cell count and liver function,"[1]; doses used in the experiments, iv",did not cause any overt abnormalities
same,"injuries by histological analyses of heart, liver, lungs, and kidneys",[2],did not cause any overt injuries
same,"LARG-RhoA interaction, relative amount of RhoA normalized to GAPDH","LARG-RhoA interaction; 50 μM Y16, 24 h, then 10^−7M Ang II 10 min, control 0.939±0.121, p<0.001",0.469±0.074
same,inhibition of LARG-RhoA complex formation induced by Ang II,"LARG-RhoA interaction; Y16 1-50 μM, 24 h",dose-dependently inhibited
same,phospho-MYPT1 normalized to total-MYPT1,"[3]; 5 μM Y16, 24 h, then 10^−7M Ang II 10 min, control 0.994±0.048, P=0.041",0.642±0.199
same,inhibition of MYPT1 phosphorylation,"[3]; Y16 1-50 μM, 24 h",dose-dependent inhibition
same,working concentrations required for the effective inhibition of MYPT1 phosphorylation,[3]; lowest concentration with statistically significant difference,5 µM
same,effect on the growth (cell viability) of SHR VSMCs,SHR primary VSMCs,no conspicuous effect on the growth
same,effect on BP,[4]; 0.2 mg/kg iv,no effects on BP
same,effect on BP,[4]; 1 mg/kg iv,no effects on BP
same,duration of BP decrease,[4]; 5 mg/kg iv,30 min
same,decrease of BP,[4]; 5 mg/kg iv,21%
same,BP as percentage of BP before administration (0 min),"[4]; 5 mg/kg iv, p=0.0081",79%±13%
same,duration of BP decrease,[4]; 10 mg/kg iv,over 60 minutes
same,decrease of BP,[4]; 10 mg/kg iv,21%
same,BP as percentage of BP before administration (0 min),"[4]; 10 mg/kg iv, p=0.0007",79%±12%
same,duration of BP decrease,[4]; 20 mg/kg iv,over 60 minutes
same,BP as percentage of BP before administration (0 min),"[4]; 20 mg/kg iv, 20 minutes, p=0.0187",58%±8%
same,reduction of HR,"[4]; 20 mg/kg iv, for 30 minutes, not statistically significant",16%
same,maximum blood pressure reduction effect,"[4]; 20 mg/kg iv, in 20 minutes",42%
same,HR as percentage of HR before administration (0 min),"[4]; 20 mg/kg iv, p=0.1067",84%±8%

# From US11911377B2, “Method for treating hypertension by using compound” (Fu Jen Catholic University, priority 2021, dated 2024)
